US20230184746A1, “HIGH-SENSITIVITY DETECTION OF GPCR ACTIVITY AND USES THEREOF” (Firmenich Incorporated, priority 2020, published 2023)
“Also recorded” adds a separate entry of the source.

Columns and labels:
Type in all cases: cell-based
[1] = target: T1, human sweet taste receptor (hT1R2/hT1R3) (Homo sapiens, UniProt Q7RTX0+Q8TE23, C757R/I191V/I486V/R317G); test: Bias plotting analysis: DMR assay with R2/R3 U2OS cells vs FLIPR-calcium mobilization assay with R2/R3 U2OS cells expressing Gα15; conditions: equimolar concentrations; data normalized to 1 mM sucralose; relative to other sweeteners
T1 construct: expressed in transfected cells
T1 sequence (Q8TE23 20-839 I191V/R317G/I486V): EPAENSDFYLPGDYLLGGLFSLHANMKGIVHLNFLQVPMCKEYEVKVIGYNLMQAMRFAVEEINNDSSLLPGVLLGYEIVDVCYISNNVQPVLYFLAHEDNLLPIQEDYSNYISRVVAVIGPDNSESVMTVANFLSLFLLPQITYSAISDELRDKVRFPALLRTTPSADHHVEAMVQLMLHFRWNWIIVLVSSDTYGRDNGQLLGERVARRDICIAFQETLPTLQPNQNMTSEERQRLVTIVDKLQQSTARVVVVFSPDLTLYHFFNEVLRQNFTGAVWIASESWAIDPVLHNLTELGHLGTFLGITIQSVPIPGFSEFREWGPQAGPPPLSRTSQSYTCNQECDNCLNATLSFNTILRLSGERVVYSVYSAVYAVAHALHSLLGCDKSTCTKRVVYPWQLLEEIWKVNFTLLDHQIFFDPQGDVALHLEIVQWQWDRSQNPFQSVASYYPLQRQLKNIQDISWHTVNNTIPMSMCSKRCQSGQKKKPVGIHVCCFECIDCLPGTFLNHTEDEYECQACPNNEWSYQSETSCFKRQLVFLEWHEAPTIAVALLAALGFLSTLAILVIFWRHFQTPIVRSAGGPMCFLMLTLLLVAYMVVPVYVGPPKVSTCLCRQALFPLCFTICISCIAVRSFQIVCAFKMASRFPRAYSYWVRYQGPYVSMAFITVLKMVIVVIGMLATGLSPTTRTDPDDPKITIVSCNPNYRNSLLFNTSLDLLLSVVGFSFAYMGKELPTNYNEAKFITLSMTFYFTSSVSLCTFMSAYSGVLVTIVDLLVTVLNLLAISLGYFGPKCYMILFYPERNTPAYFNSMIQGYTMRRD
T1 sequence (Q7RTX0 21-852 C757R): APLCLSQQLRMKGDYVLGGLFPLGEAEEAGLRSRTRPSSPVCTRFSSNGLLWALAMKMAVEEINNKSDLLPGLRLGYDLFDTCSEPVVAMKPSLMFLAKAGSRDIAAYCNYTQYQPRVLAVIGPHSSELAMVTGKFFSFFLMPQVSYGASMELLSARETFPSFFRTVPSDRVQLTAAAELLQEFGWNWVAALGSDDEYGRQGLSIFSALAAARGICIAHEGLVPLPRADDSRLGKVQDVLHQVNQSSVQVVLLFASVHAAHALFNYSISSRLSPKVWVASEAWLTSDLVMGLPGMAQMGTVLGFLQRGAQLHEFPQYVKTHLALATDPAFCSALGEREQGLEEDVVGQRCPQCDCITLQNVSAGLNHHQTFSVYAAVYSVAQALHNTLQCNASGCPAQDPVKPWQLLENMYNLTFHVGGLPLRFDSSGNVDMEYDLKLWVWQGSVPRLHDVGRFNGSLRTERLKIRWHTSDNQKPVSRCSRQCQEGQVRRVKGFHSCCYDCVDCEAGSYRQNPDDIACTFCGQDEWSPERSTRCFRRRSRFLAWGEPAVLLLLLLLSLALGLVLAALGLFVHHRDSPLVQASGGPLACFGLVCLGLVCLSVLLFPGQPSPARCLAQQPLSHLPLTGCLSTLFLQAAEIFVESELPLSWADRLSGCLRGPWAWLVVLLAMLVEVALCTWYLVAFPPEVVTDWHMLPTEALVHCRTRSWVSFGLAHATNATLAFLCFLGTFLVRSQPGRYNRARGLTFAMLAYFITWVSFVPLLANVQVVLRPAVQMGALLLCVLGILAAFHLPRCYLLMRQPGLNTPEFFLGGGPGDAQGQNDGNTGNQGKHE
Description: (§1) Untransfected U2OS cells were cultured at 37° C. and 5% CO2 in McCoy's 5A medium (modified, GIBCO#16600) supplemented with 10% fetal bovine serum and penicillin/streptomycin. Plasmids encoding hT1R2 in pEAK10-puromycin and hT1R3 in pcDNA3.1-zeocin were linearized and transfected into U2OS cells followed by dilution and double selection in growth medium plus 0.5 μg/m1puromycin and 100 μg/mlzeocin. Individual colonies were expanded and transiently transfected with a Gα6gust25 expression construct to identify functional clones using sucralose as the agonist in a Ca2+ imaging assay. […] The lidded Epic® 384 microplate and polypropylene compound plate (Corning) were loaded into the carousel of the Epic® reader, the target plate was washed with DMSO matched D-PBS using the Corning Epic® Liquid Handling Accessory (LHA) and equilibrated in 25 μL of DMSO matched D-PBS for 90 minutes. After recording the baseline activity for 5 to 8 minutes, 25 μL of 2× concentrated solution of sweetener, agonist or a mixture of agonist and modulator, diluted in D-PBS, was added using the LHA and the DMR responses which measures a shift in the resonance wavelength, were monitored for an additional 30 minutes. […]
(§2) In FIG. 2A known sweeteners and new agonists were evaluated in the DMR assay with R2/R3 U2OS cells using a dose-response analysis. […]

[2] = target: T1, human sweet taste receptor (hT1R2/hT1R3); test: DMR assay (Epic reader) with R2/R3 U2OS cells; conditions: increasing concentrations, no overexpressed G protein
Description: as §1, §2

parental U2OS cells = test: DMR assay (Epic reader) with parental U2OS cells; conditions: parental (untransfected) U2OS cells, increasing concentrations
Description: as §1, with “assay. […] (R2/R3 U2OS cells) were seeded on Epic®384 microplates (Corning) at a density of 16,000 cells/well in 40 pt of assay media using a multidrop (Thermo Scientific).” for “assay.”

SMILES | Bias between FLIPR assay and DMR (EPIC) assay [1] | DMR signal (shift in resonance wavelength) [2] | DMR signal (shift in resonance wavelength) (parental U2OS cells)
CCCOc1ccc([N+](=O)[O-])cc1N [P-4000] | more active in the FLIPR assay; also recorded: clear bias for the FLIPR assay | – | –
COC(=O)[C@H](Cc1ccccc1)NC(=O)[C@H](CC(=O)O)NCCC(C)(C)C [Neotame] | more active in the FLIPR assay; also recorded: clear bias for the FLIPR assay | – | –
OC[C@H]1O[C@H](O[C@]2(CCl)O[C@H](CCl)[C@@H](O)[C@@H]2O)[C@H](O)[C@@H](O)[C@H]1Cl [sucralose] | – | positive DMR signal | does not cause a comparable positive DMR signal
